Assay results from patent US20230285570A1, “THERAPEUTICALLY USEFUL CURE-PRO MOLECULES FOR E3 LIGASE MEDIATED DEGRADATION OF PROTEINS, AND METHODS OF MAKING AND USING THEM” (CORNELL UNIVERSITY, priority 2020, published 2023).
“Also recorded” adds a separate entry of the source.

How the values were obtained:
Assay type in all cases: cell-based
Aiolos and Ikaros [1] = assay: Aiolos and Ikaros expression in Namalwa cells, Western blot; conditions: monomer alone, 100 nM-10 μM, 24 h
Procedure: (§1) Namalwa, Ramosm HeLa, MCF7, or HT29 HCT116 cells (2.5-3×10^6) were treated for 24 hours with the indicated compounds solubilized in DMSO. The cells were washed in ice-cold PBS and were then lysed in RIPA lysis buffer (150 mM NaCl, 5 mM EDTA, 1% NP-40, 0.5% sodium deoxycholate, 0.1% SDS, 50 mM Tris, pH 8.0.) with Roche protease inhibitor complete cocktail and phosphatase inhibitors (10 mM sodium fluoride, 10 mM sodium pyrophosphate, 1 mM sodium orthovanadate and 20 mM β-glycerophosphate). The total protein concentrations were determined by Bradford Protein Assay (Pierce) and 10-20 μg of protein was loaded onto 4-15% Tris-Glycine gradient gels (Biorad). After standard gel electrophoresis, the separated proteins were transferred to PVDF membrane by wet transfer. The immunoblots were then blocked for 1 hour in 5% skim milk in TBST or 5% BSA in TBST, according to manufacturer's instructions, before an overnight incubation at 4° C. with indicated antibodies and membranes. Membranes were then incubated with the appropriate horseradish peroxidase-conjugated secondary antibodies (1:5,000 dilution) for 1 h at room temperature and the bands were visualized using the Clarity Max Western ECL Substrate (Biorad) and the ChemiDoc Imaging System (Biorad). Signal was detected with ECL Western Blotting Substrate (Pierce) and X-ray film processed with a Konica SRX-101 X-ray film processor or captured by Bio-Rad's Chemidoc Imaging system.
(§2) Namalwa (FIG. 78) or Ramos (FIG. 79) cells (5×10^6) were treated for 24 h with the compounds solubilized in DMSO. Compounds were added at 100 nM-10 μM each. Standardized protein samples were electrophoresed and imaged as described in the immunoblotting section above. FIGS. 78 and 79 depict the effects of the E3 ubiquitin ligase CURE-PRO monomer ligands (100 nM-10 μM, 24 h) targeting Cereblon on the expression of Aiolos and Ikaros, two downstream proteins that are known to be ubiquitinated and degraded after IMiDs bind to CRBN.

Aiolos and Ikaros [2] = assay: Aiolos and Ikaros expression in Ramos cells, Western blot; conditions: monomer alone, 100 nM-10 μM, 24 h
Procedure: as §1, §2

BRD4 = BRD4 (Homo sapiens, UniProt O60885); assay: CURE-PRO-mediated BRD4 degradation in HeLa cells, WES capillary electrophoresis (ProteinSimple); set-up: endogenous in cells; host or cells: HeLa; conditions: co-dosed with CRBN ligand 8047, HeLa, 24 h, 100 nM-10 μM each
Procedure: All cell lines were purchased from ATCC or DSMZ and grown at 37° C. with 5% CO2. Human HeLa cells were cultured in complete growth medium (Dulbecco's modified Eagle's medium (DMEM) supplemented with 10% FBS); MCF7 cells were cultured in complete growth medium (Dulbecco's modified Eagle's medium (DMEM) supplemented with 10% FBS and 0.01 mg/ml human recombinant insulin (Sigma Aldrich); Namalwa and Ramos cells were cultured in complete growth medium (RPMI 1640 medium supplemented with 10% FBS); HCT116 and HT29 cells were cultured in complete growth medium (McCoy's 5a Medium supplemented with 10% FBS). For cellular degradation of BRD4 studies cells were seeded in a 12-well plate at 70-80% confluency, allowed to attach overnight, and incubated with the indicated compounds for the indicated time. When indicated, a 15-minute pretreatment with 10 μM pomalidomide, 10 μM VHL298, 10 μM Nutlin3a, 1 μM MG-132 or 1 μM Carfilzomib was performed before the addition of CURE-PROs. For washout studies, after CURE-PRO treatment, media was aspirated and incubated with complete medium for the indicated time before lysis.
(§3) WES Simple analysis was performed on WES system (ProteinSimple-Biotechne) according to the manufacturer's instructions. Total protein concentrations of cell lysates were determined by the Pierce BCA kit (Thermo Fisher). 3 μL of 0.3 μg/μL of the protein lysate was loaded onto a 12- to 230-kDa WES assay plate (ProteinSimple) where 300 nL sample was withdrawn through a capillary, subjected to electrophoretic separation of proteins by size, and followed by the simultaneous, HRP-based detection of proteins using the Anti-Rabbit Detection Module (Proteinsimple: #DM-001). The electropherograms were checked then the automatic peak detection was manually corrected if it was required.
HeLa cells (2.5×10^6) were treated for 4-24 hours with the compounds solubilized in DMSO. After 4 hours, indicated points were washed and cells were left in full growth media. Compounds were added at 10 μM each. Standardized protein samples were electrophoresed and imaged as described in the WES ProteinSimple section above. FIGS. 44 and 45 depict the time-dependence of CURE-PRO-mediated BRD4 degradation with the BRD-E52 ligand (FIG. 44) and BRD-E72 ligand (FIG. 45), both JQ1 derivatives comprising of boronic acid linkers, and the CRBN binding ligands (8046, 8047, and 8066), pomalidomide derivatives comprising diol linkers.
HeLa cells (2.5×10^6) were treated for 24 hours with the compounds solubilized in DMSO. Compounds were added at 100 nM-10 μM each. Standardized protein samples were electrophoresed and imaged as described in the WES ProteinSimple section above. FIG. 46 depicts the concentration-dependence of CURE-PRO-mediated BRD4 degradation and the requirement for monomer dimerization.

c-MYC [3] = target: T1, c-MYC (Homo sapiens, UniProt P01106); assay: CURE-PRO-mediated c-MYC degradation in MCF7 cells, WES (ProteinSimple); set-up: endogenous in cells
Procedure: as §3
Compounds were added at 1 μM-10 μM each. Standardized protein samples were electrophoresed and imaged as detected on a WES capillary electrophoresis instrument (Proteinsimple), as described above. c-MYC monomers, MYC-N5 (FIG. 94) and MYC-N2 (FIG. 95) (10058-F4 derivatives comprising diol linkers), and VHL ligands, 8297 and 8298 (VH-298 derivatives comprising boronic acid linkers) were combined in a 1:1 ratio.

c-MYC [4] = target: T1, c-MYC; assay: Summary of C-MYC degradation by CURE-PRO pairs, estimated from Western Blot or WES; set-up: endogenous in cells; host or cells: HT29
Procedure: as §1, §3
A black check mark indicates efficacy of 30% to 70% or higher protein degradation.

MV-4-11 cells = assay: CellTiter-Glo cell viability, MV-4-11 cells; conditions: monomer alone, MV-4-11, 24 h, 1 nM-100 μM
Procedure: CellTiter-Glo® 2.0 Cell Viability Assay (Promega) was carried out following the manufacturer's recommendations. Cells were seeded at a density of 1000 cells/well in a white 96 well plates (Corning, #3917) in a total volume of 100 μl with respective monomers, combinations of BRD ligands together with E3 ligase ligands or vehicle control treatment. After a 72 h incubation, 100 ul of the CellTiter-Glo® substrate was added per well and luminescence was read on a Spectramax M5 (Molecular Devices). Dose-response curves were generated using Graphpad Prism software.
MV-4-11 cells (5×10^4) were treated for 24 hours with the sample compounds solubilized in DMSO. The compounds were added at 1 nM-100 μM each. Cellular viability was determined using the CellTiter-Glo® Luminescent Cell Viability Assay (Promega) described above. FIGS. 19-22 depict the CURE-PRO-mediated loss of cellular viability for BRD monomers (JQ1 derivatives comprising of catechol linkers), and CRBN ligand, 8049 (pomalidomide derivatives comprising boronic acid linkers) combined in a 1:1 ratio.
MV-4-11 cells (1×10^4) were treated for 72 hours with the compounds solubilized in DMSO. Compounds were added at 10 nM-100 μM each. Cellular viability was determined using the CellTiter-Glo® Luminescent Cell Viability Assay (Promega) described above. FIGS. 47-54 depict the CURE-PRO-mediated loss of cellular viability for BRD monomers (JQ1 derivatives comprising of boronic acid linkers), and CRBN ligands, 8046, 8047 and 8066 (pomalidomide derivatives comprising diol linkers) combined in a 1:1 ratio.

[5] = 1:1 with VHL ligand 8297, MCF7, 24 h, 1 μM-10 μM each
[6] = 1:1 with VHL ligand 8298, MCF7, 24 h, 1 μM-10 μM each
[7] = c-MYC monomer alone, MCF7, 24 h, 1 μM-10 μM

T1 sequence (P01106 whole entry): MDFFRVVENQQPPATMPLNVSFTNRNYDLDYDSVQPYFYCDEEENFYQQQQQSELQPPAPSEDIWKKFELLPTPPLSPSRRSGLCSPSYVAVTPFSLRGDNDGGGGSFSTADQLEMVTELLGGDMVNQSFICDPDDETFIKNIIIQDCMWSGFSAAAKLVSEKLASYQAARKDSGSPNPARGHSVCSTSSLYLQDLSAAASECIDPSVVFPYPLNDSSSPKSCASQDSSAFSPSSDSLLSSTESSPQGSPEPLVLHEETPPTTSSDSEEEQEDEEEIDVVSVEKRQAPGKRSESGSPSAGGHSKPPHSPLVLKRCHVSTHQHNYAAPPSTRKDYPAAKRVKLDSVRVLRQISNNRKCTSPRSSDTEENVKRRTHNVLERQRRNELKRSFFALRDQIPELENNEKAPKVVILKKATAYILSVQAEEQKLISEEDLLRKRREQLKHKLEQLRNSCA

SMILES | expression of Aiolos and Ikaros (Aiolos and Ikaros [1]) | expression of Aiolos and Ikaros (Aiolos and Ikaros [2]) | further results
O=C1CCC(N2C(=O)c3cccc(CNC(=O)C4C[C@H]5C[C@@H]4[C@H](O)[C@@H]5O)c3C2=O)C(=O)N1 (stereo in doubt) [compound 8066, (1S,4R,5R,6S)—N-((2-(2,6-dioxopiperidin-3-yl)-1,3-dioxoisoindolin-4-yl)methyl)-5,6-dihydroxybicyclo[2.2.1]heptane-2-carboxamide] | largely maintain Aiolos and Ikaros expression levels | largely maintain Aiolos and Ikaros expression levels | 
CCNC(=O)C[C@@H]1N=C(c2ccc(Sc3ccccc3)cc2)c2cc(OC)ccc2-n2c(C)nnc21 [BRD-E52C, N-ethyl-2-((4S)-8-methoxy-1-methyl-6-(4-(phenylthio)phenyl)-4H-benzo[f][1,2,4]triazolo[4,3-a][1,4]diazepin-4-yl)acetamide] |  |  | concentration-dependent BRD4 degradation (BRD4): failed to induce degradation even at 10 μM
CCc1ccc(/C=C2\SC(=O)N(Cc3cccc(O)c3O)C2=O)cc1 [MYC-N2] |  |  | c-MYC degradation (c-MYC [3]; [5]): Degradation is observed; also recorded: caused degradation of c-MYC; c-MYC degradation (c-MYC [3]; [6]): no loss of c-MYC protein was observed; c-MYC degradation (c-MYC [3]; [7]): no loss of c-MYC protein was observed; Degradation of C-MYC, combination with CRBN ligand 8048 (c-MYC [4]; Table 10, aromatic 1,2-diol MYC ligand + 8048): √ (A black check mark indicates efficacy of 30% to 70% or higher protein degradation)
CCc1ccc(/C=C2\SC(=O)N(CCCc3ccc(O)c(O)c3)C2=O)cc1 [MYC-N5] |  |  | c-MYC degradation (c-MYC [3]; [5]): no loss of c-MYC protein was observed; c-MYC degradation (c-MYC [3]; [6]): Degradation is observed; also recorded: caused degradation of c-MYC; c-MYC degradation (c-MYC [3]; [7]): no loss of c-MYC protein was observed; Degradation of C-MYC, combination with CRBN ligand 8049 (c-MYC [4]; Table 10, aromatic 1,2-diol MYC ligand + 8049): √ (A black check mark indicates efficacy of 30% to 70% or higher protein degradation)
O=C1CCC(N2C(=O)c3cccc(CNC(=O)c4ccc(O)c(O)c4)c3C2=O)C(=O)N1 (centres unmarked) [compound 8046, N-((2-(2,6-dioxopiperidin-3-yl)-1,3-dioxoisoindolin-4-yl)methyl)-3,4-dihydroxybenzamide] | largely maintain Aiolos and Ikaros expression levels | largely maintain Aiolos and Ikaros expression levels | 
O=C1CCC(N2C(=O)c3cccc(CNC(=O)c4cccc(O)c4O)c3C2=O)C(=O)N1 (centres unmarked) [compound 8047, N-((2-(2,6-dioxopiperidin-3-yl)-1,3-dioxoisoindolin-4-yl)methyl)-2,3-dihydroxybenzamide] | largely maintain Aiolos and Ikaros expression levels | largely maintain Aiolos and Ikaros expression levels | 
O=C1CCC(N2C(=O)c3cccc(CNC(=O)c4ccc(B(O)O)cc4)c3C2=O)C(=O)N1 (centres unmarked) [compound 8048] | largely maintain Aiolos and Ikaros expression levels | largely maintain Aiolos and Ikaros expression levels | 
O=C1CCC(N2C(=O)c3cccc(CNC(=O)c4cccc(B(O)O)c4)c3C2=O)C(=O)N1 (centres unmarked) [compound 8049] | largely maintain Aiolos and Ikaros expression levels | largely maintain Aiolos and Ikaros expression levels | loss of cellular viability (MV-4-11 cells): little loss of viability was observed
